In brackets after ≈: the same amount, converted by molar mass. Several values for one entry are separate records, joined by “and”; a condition that tells them apart may be missing. Equal entries are not always repeated. Positions of bridges follow the written chain, without caps; N, C: chain ends. Non-standard residues stand in square brackets, D forms with d. Residues, ends and D or L forms follow the SMILES beside them. *: point of attachment. dDab = NCC[C@@H](N)C(=O)O; Heptanoyl = CCCCCCC(=O)*
Columns and labels:
[1] = test system: A. baumannii ATCC 19606; assay type: cell-based; conditions: A. baumannii ATCC 19606
Procedure: (§1) MICs of compounds were determined following CLSI guidelines using the microbroth dilution method in polypropylene plates. Selected Gram-negative bacterial strains (see Table S2 for strain sources) were taken from glycerol stocks and grown overnight on blood agar. Individual colonies were selected and grown in Tryptic Soy Broth (TSB) to an OD600 of 0.5. Compounds were diluted in Mueller Hinton Broth (MHB) supplemented with Mg^2+ and Ca^2+ at final concentrations of 12 and 20 mg/L, respectively (CAMHB). 50 μL was used for each well, and compounds were assessed in triplicates. Bacterial culture was diluted in CAMHB to 10^6 CFU/mL, yielding 5 × 10^5 CFU/mL upon addition of 50 μL of culture to 50 μL of compound solution. Positive and negative (sterility) controls were present on each plate. Plates were sealed with a semipermeable membrane and incubated for 22 h (A. baumannii) or 18 h (other strains) under shaking at 37 °C.

[2] = test system: E. coli ATCC 25922; assay type: cell-based; conditions: E. coli ATCC 25922
Procedure: as §1

[3] = test system: E. coli BW25113; assay type: cell-based; conditions: E. coli BW25113; CLSI microbroth dilution, CAMHB, 18 h, 37 °C, triplicate
Procedure: as §1

[4] = test system: E. coli JW3594 (ΔwaaD); assay type: cell-based; conditions: truncated LPS, CLSI microbroth dilution, CAMHB, 18 h, 37 °C, triplicate
Procedure: as §1

[5] = test system: E. coli JW3596 (ΔwaaC); assay type: cell-based; conditions: truncated LPS, CLSI microbroth dilution, CAMHB, 18 h, 37 °C, triplicate
Procedure: as §1

[6] = test system: E. coli mcr-1; assay type: cell-based; conditions: CLSI microbroth dilution, CAMHB, 18 h, 37 °C, triplicate
Procedure: as §1

[7] = test system: K. pneumoniae ATCC 13883; assay type: cell-based; conditions: K. pneumoniae ATCC 13883
Procedure: as §1

[8] = test system: P. aeruginosa 2018-007; assay type: cell-based; conditions: P. aeruginosa 2018-007; CLSI microbroth dilution, CAMHB, 18 h, 37 °C, triplicate
Procedure: as §1

[9] = test system: P. aeruginosa ATCC 10145; assay type: cell-based; conditions: P. aeruginosa ATCC 10145
Procedure: as §1

[10] = test system: P. aeruginosa ATCC 27853; assay type: cell-based; conditions: P. aeruginosa ATCC 27853; CLSI microbroth dilution, CAMHB, 18 h, 37 °C, triplicate
Procedure: as §1

[11] = test system: P. aeruginosa NRZ03961; assay type: cell-based; conditions: P. aeruginosa NRZ03961; CLSI microbroth dilution, CAMHB, 18 h, 37 °C, triplicate
Procedure: as §1

[12] = test system: polymyxin-resistant (mcr-1 positive) E. coli; test: microbe, parasite or virus in culture; assay type: cell-based; conditions: E. coli mcr-1, checkerboard
Procedure: (§2) Selected Gram-negative bacterial strains were taken from glycerol stocks and grown overnight on blood agar. A single colony was inoculated in TSB broth at 37 °C until an optical density of 0.5 at 600 nm (OD600) was reached. The bacterial suspension was diluted in freshly prepared CAMHB to 10^6 CFU/mL. Compounds were diluted along the plate, using 25 μL of CAMHB for each dilution. Antibiotic concentrations were prepared separately in a multiwell reservoir, including a control without antibiotic. Of each antibiotic stock, 25 μL was added to three columns to obtain triplicates for every condition. To each 50 μL containing well was then added 50 μL of the 10^6 CFU/mL bacterial suspension, and the plates were sealed with breathable seals. After incubation for 18 h at 37 °C while shaking, the seals were removed and the density of the bacterial suspensions was measured at 600 nm (OD600) using a Tecan Spark plate reader. The OD600 values were transformed to a 2D gradient with the negative control as the minimum and the positive control as the maximum. The FICI was calculated using the following equation: [drawing 1] with MSCant and MSCcomp indicating the optimal synergistic concentration of antibiotic and compound and MICant and MICcomp, the corresponding MICs of the individual compounds. An FICI ≤ 0.5 indicates synergy.[48]

[13] = test system: polymyxin-sensitive E. coli ATCC 25922; test: microbe, parasite or virus in culture; assay type: cell-based; conditions: E. coli ATCC 25922
Procedure: as §2

[14] = test system: LPS from E. coli (O55:B5); test: Isothermal titration calorimetry (ITC), LPS binding; conditions: compound (1 mM) into LPS (20 µM), 20 mM HEPES pH 7, 37 °C, mean and SD of three experiments
Procedure: Stock solutions of LPS (10 mg/mL, 0.5 mM) were prepared in 20 mM HEPES at pH 7 by suspension, sonication, and temperature cycling between 4 and 60 °C and stored overnight prior to use. LPS from E. coli (O55:B5) was used. Lipopeptide solutions (1 mM in 20 mM HEPES, pH 7) were titrated into a suspension of LPS (0.020 mM) in the same buffer. Control titrations included the titration of peptide into buffer and buffer into the LPS suspension to determine the corresponding heat of dilution. All binding experiments were performed using a MicroCal PEAQ-ITC Automated microcalorimeter (Malvern Panalytical Ltd., Malvern, UK). The samples were equilibrated to 37 °C prior to measurement. The titrations were conducted at 37 °C under constant stirring at 750 rpm. Each experiment consisted of an initial injection of 0.3 μL followed by 25 separate injections of 1.5 μL into the sample cell of 200 μL. The time between each injection was 180 s, and the measurements were performed with the reference power set at 5 μcal s^–1 and the feedback mode set at “low”. For all calculations performed, an estimated molecular weight of 20 kDa for LPS was applied. The calorimetric data thus obtained were analyzed using MicroCal PEAQ-ITC Analysis Software Version 1.20 (Malvern Panalytical Ltd., Malvern, UK), where the integrated heat signal is corrected for the heat of dilution of the titrant.

[15] = CLSI microbroth dilution, CAMHB, 18 h, 37 °C, triplicate

## CCCCCCC(=O)N[C@H](CCN)C(=O)N[C@@H](C(=O)N[C@H](CCN)C(=O)N[C@@H]1CCNC(=O)[C@@H]([C@H](C)O)NC(=O)[C@@H](CCN)NC(=O)[C@@H](CCN)NC(=O)[C@@H](CC(C)C)NC(=O)[C@H](Cc2ccccc2)NC(=O)[C@@H](CCN)NC1=O)[C@H](C)O [ent-PmxB4] (Heptanoyl-[dDab][dT][dDab][dDab][dDab]F[dL][dDab][dDab][dT]; lactam 4-C)
[1]; + PMBN (8 ug/mL)
  MIC in presence of PMBN: > 128 µg/mL
[1]; + SPR741 (8 ug/mL)
  MIC in presence of SPR741: > 128 µg/mL
[1]; CLSI microbroth dilution, CAMHB, 22 h, 37 °C, triplicate
  MIC: >128 µg/mL
[2]; + PMBN (8 ug/mL)
  MIC in presence of PMBN: 128 µg/mL
[2]; + SPR741 (8 ug/mL)
  MIC in presence of SPR741: 128 µg/mL
[3]
  MIC: >128 µg/mL
[4]
  MIC: 128 µg/mL (≈ 109 µM)
[5]
  MIC: 128 µg/mL (≈ 109 µM)
[6]
  MIC: 128 µg/mL (≈ 109 µM)
[7]; + PMBN (8 ug/mL)
  MIC in presence of PMBN: > 128 µg/mL
[7]; + SPR741 (8 ug/mL)
  MIC in presence of SPR741: > 128 µg/mL
[7]; [15]
  MIC: >128 µg/mL
[8]
  MIC: >128 µg/mL
[9]; + PMBN (8 ug/mL)
  MIC in presence of PMBN: > 128 µg/mL
[9]; + SPR741 (8 ug/mL)
  MIC in presence of SPR741: > 128 µg/mL
[9]; [15]
  MIC: >128 µg/mL
[10]
  MIC: >128 µg/mL
[11]
  MIC: >128 µg/mL
[12]; substance alone
  MIC alone: 128 µg/mL
[12]; combination with rifampicin, CAMHB, 18 h, 37 °C, OD600, FICI ≤ 0.5 indicates synergy
  FICI: 0.19 and 0.188
[13]; checkerboard, substance alone
  MIC alone: 128 µg/mL
[13]; compound in combination with rifampicin, optimal synergistic concentration
  MIC in combination: 8 µg/mL
[14]
  ΔΔH, maximum enthalpy observed after subtraction of dilution control: -3.485 kcal/mol

Source: publication PMC9745799, “Polymyxin Stereochemistry and Its Role in Antibacterial Activity and Outer Membrane Disruption” (ACS Infectious Diseases, 2022)
